Laboratory results as given in PubChem BioAssay AID588719 (Southern Research Specialized Biocontainment Screening …, 2011).

Test system: Vero 76 cells viability, cytotoxicity counter-screen
Assay: Vero 76 cell cytotoxicity, dose response, cytotoxicity control for VEEV inhibitor project (AID 588719)

`COc1cc(/C=C/C(=O)/C=C(O)/C=C/c2ccc(O)c(OC)c2)ccc1O` gave a CC50 of 19.9 µM.
